Test [1] has as its system HeLa. As to the kind of experiment: Cytotoxicity against human HeLa cells at 10 uM after 72 hrs by MTT assay. The format is functional. Background: Tetrazolium dyes change colour on reduction, which living cells bring about.
For test [2], the system named is A2780. Nature of the test: Cytotoxicity against human A2780 cells at 30 uM after 72 hrs by MTT assay. In kind it is functional. To be noted: A2780, 72 h.
In test [3] the test system is A2780. As to the kind of experiment: Cytotoxicity against human A2780 cells at 10 uM after 72 hrs by MTT assay. The format is functional. To be noted: A2780, 72 h.
For test [4], the system named is A-431. Nature of the test: Cytotoxicity against human A431 cells at 30 uM after 72 hrs by MTT assay. The format is functional. The following applies: A-431, 72 h.
The subject of test [5] is A-431. As to the kind of experiment: Cytotoxicity against human A431 cells at 10 uM after 72 hrs by MTT assay. The following applies: A-431, 72 h. The format is functional.
Test [6] relates to MCF7. As to the kind of experiment: Cytotoxicity against human MCF7 cells at 10 uM after 72 hrs by MTT assay. To be noted: MCF7, 72 h. In kind it is functional.
Test [7] has as its system MCF7. As to the kind of experiment: Cytotoxicity against human MCF7 cells at 30 uM after 72 hrs by MTT assay. The format is functional. To be noted: MCF7, 72 h.
For test [8], the system named is HeLa. As to the kind of experiment: Cytotoxicity against human HeLa cells at 30 uM after 72 hrs by MTT assay. The format is functional.
The subject of test [9] is HeLa. As to the kind of experiment: Cytotoxicity against human HeLa cells after 72 hrs by MTT assay. The format is functional, cell-based.
The test system of test [10] is A-431. Nature of the test: Cytotoxicity against human A431 cells after 72 hrs by MTT assay. In kind it is functional, cell-based. To be noted: A-431, 72 h.
In test [11] the test system is A2780. As to the kind of experiment: Cytotoxicity against human A2780 cells after 72 hrs by MTT assay. The following applies: A2780, 72 h. In kind it is functional, cell-based.
The subject of test [12] is MCF7. As to the kind of experiment: Cytotoxicity against human MCF7 cells after 72 hrs by MTT assay. The format is functional, cell-based. The following applies: MCF7, 72 h.

The values that follow come from ChEMBL document CHEMBL3124875, “A facile access to novel steroidal 17-2'-(1',3',4')-oxadiazoles, and an evaluation of their cytotoxic activities in vitro” (Bioorg Med Chem Lett, 2014).

Structures are written as SMILES.

Regarding `CC(=O)O[C@H]1CC[C@@]2(C)C(=CC[C@H]3[C@@H]4CC[C@H]([C@@H]5OC(c6ccccc6)=NN5C(C)=O)[C@@]4(C)CC[C@@H]32)C1`, the inhibition at 10 µM in the test with HeLa [1], with A2780 [3], in the test with A-431 [5] and in the test with MCF7 [6] was < 20% throughout. Also, the inhibition at 30 µM in the test with A2780 [2] was 40.3%; with A-431 [4] it was 30.6%; in the test on MCF7 [7] it was < 20%; with HeLa [8], 23%.

`C[C@]12CC[C@H]3[C@@H](CC=C4C[C@@H](O)CC[C@@]43C)[C@@H]1CC[C@@H]2c1nnc(-c2ccccc2)o1`: the inhibition at 10 µM in the test with HeLa [1] turned out to be 77.4%; in the test with A2780 [3], 29.2%; with A-431 [5], 68%; in the test with MCF7 [6], 31.6%. The inhibition at 30 µM is 38.7% in the test on A2780 [2], 69.9% in the test with A-431 [4], 35.3% in the test with MCF7 [7] and 80.7% in the test with HeLa [8]. The 50% inhibitory concentration (IC50) with HeLa [9] came out at 1.69 µM; in the test on A-431 [10], 1.91 µM.

As for `C[C@]12CC[C@H]3[C@@H](CC=C4C[C@@H](O)CC[C@@]43C)[C@@H]1CC[C@@H]2c1nnc(-c2cccnc2)o1`, the inhibition at 10 µM in the test with HeLa [1] amounted to 71.7%; with A2780 [3], 31.9%; with A-431 [5] it was 60.3%; with MCF7 [6] it was 41.6%. The inhibition at 30 µM stood at 33.3% with A2780 [2], 65.4% in the test with A-431 [4], 45.5% with MCF7 [7] and 74.2% in the test with HeLa [8]. In addition, the IC50 was 4.83 µM in the test with HeLa [9] and 6.76 µM in the test with A-431 [10].

Turning to `C[C@]12CC[C@H]3[C@@H](CC=C4C[C@@H](O)CC[C@@]43C)[C@@H]1CC[C@@H]2c1nnc(-c2ccco2)o1`, the inhibition at 10 µM is 74.9% with HeLa [1], 37.5% in the test with A2780 [3], 66.6% with A-431 [5] and 42% with MCF7 [6]. The inhibition at 30 µM in the test on A2780 [2] is 37%; in the test with A-431 [4] it was 69.2%; in the test on MCF7 [7], 46.6%; with HeLa [8], 77.5%. Also, the IC50 turned out to be 1.56 µM in the test on HeLa [9] and 1.82 µM in the test with A-431 [10].

`CC(=O)O[C@H]1CC[C@@]2(C)C(=CC[C@H]3[C@@H]4CC[C@H](c5nnc(-c6ccccc6)o5)[C@@]4(C)CC[C@@H]32)C1`: the inhibition at 10 µM with HeLa [1] is < 20%; in the test on A2780 [3] it was < 20%; in the test with A-431 [5], < 20%; in the test with MCF7 [6], 22.6%. Further, the inhibition at 30 µM with A2780 [2] was 52%; in the test on A-431 [4] it was 59.1%; in the test on MCF7 [7], 41.5%; in the test on HeLa [8] it was 57.4%. For the same compound, the IC50 with HeLa [9] is 29.4 µM; in the test with A2780 [11], 28.8 µM; in the test with A-431 [10] it was 25.4 µM.

In the case of `CC(=O)O[C@H]1CC[C@@]2(C)C(=CC[C@H]3[C@@H]4CC[C@H](c5nnc(-c6cccnc6)o5)[C@@]4(C)CC[C@@H]32)C1`, the inhibition at 10 µM was 22.5% with HeLa [1], 22.8% with A2780 [3], < 20% in the test on A-431 [5] and 21.8% in the test with MCF7 [6]. Further, the IC50 in the test with MCF7 [12] stood at 26.1 µM; in the test with HeLa [9] it was 20.8 µM; with A-431 [10], 23.6 µM. For the same compound, the inhibition at 30 µM with A2780 [2] was 48.2%; in the test on A-431 [4], 60.8%; with MCF7 [7], 55.7%; in the test with HeLa [8], 65.8%.

With `CC(=O)O[C@H]1CC[C@@]2(C)C(=CC[C@H]3[C@@H]4CC[C@H](c5nnc(-c6ccco6)o5)[C@@]4(C)CC[C@@H]32)C1`, the inhibition at 10 µM was 27.5% in the test on HeLa [1], 24.1% in the test with A2780 [3], < 20% with A-431 [5] and 26.1% in the test with MCF7 [6]. For the same compound, the inhibition at 30 µM turned out to be 43.5% with A2780 [2], 25.9% in the test with A-431 [4], 45.3% in the test on MCF7 [7] and 48.2% with HeLa [8].

Regarding `C[C@]12CC[C@H]3[C@@H](CC=C4C[C@@H](O)CC[C@@]43C)[C@@H]1CC[C@@H]2/C=N/NC(=O)c1ccccc1`, the inhibition at 10 µM was 72.2% in the test on HeLa [1], 32.6% with A2780 [3], < 20% in the test on A-431 [5] and < 20% with MCF7 [6]. For the same compound, the inhibition at 30 µM in the test with A2780 [2] was found to be 60.9%; in the test with A-431 [4], 38.1%; in the test with MCF7 [7], 48%; in the test on HeLa [8], 90.4%. The 50% inhibitory concentration (IC50) with HeLa [9] is 4.68 µM; in the test with A2780 [11] it was 20.3 µM.

Consider `C[C@]12CC[C@H]3[C@@H](CC=C4C[C@@H](O)CC[C@@]43C)[C@@H]1CC[C@@H]2/C=N/NC(=O)c1cccnc1`, for which the inhibition at 10 µM in the test on HeLa [1] is 80.5%; with A2780 [3] it was 23.5%; in the test on A-431 [5] it was 40.1%; in the test on MCF7 [6], < 20%. Further, the half-inhibitory concentration (IC50) in the test with MCF7 [12] was found to be 18.9 µM; in the test on HeLa [9], 5.54 µM; in the test on A2780 [11] it was 11.3 µM; with A-431 [10] it was 12.8 µM. Also, the inhibition at 30 µM in the test on A2780 [2] came out at 66.4%; in the test with A-431 [4] it was 71.8%; in the test with MCF7 [7], 82.9%; in the test on HeLa [8] it was 90.9%.

As to `C[C@]12CC[C@H]3[C@@H](CC=C4C[C@@H](O)CC[C@@]43C)[C@@H]1CC[C@@H]2/C=N/NC(=O)c1ccco1`, the inhibition at 10 µM in the test on HeLa [1] amounted to 78%; in the test with A2780 [3], 21.1%; in the test on A-431 [5], 24.9%; with MCF7 [6], 21.1%. Besides, the IC50 with MCF7 [12] was 28.2 µM; in the test with HeLa [9], 5.57 µM. In addition, the inhibition at 30 µM in the test with A2780 [2] stood at 46.4%; in the test with A-431 [4] it was 26.1%; with MCF7 [7], 53.2%; with HeLa [8], 91.2%.

Take `CC(=O)O[C@H]1CC[C@@]2(C)C(=CC[C@H]3[C@@H]4CC[C@H](/C=N/NC(=O)c5ccccc5)[C@@]4(C)CC[C@@H]32)C1`: the inhibition at 10 µM in the test on HeLa [1] was 71.2%; in the test with A2780 [3], 44.3%; with A-431 [5], 45.1%; in the test on MCF7 [6] it was < 20%. Also, the inhibition at 30 µM in the test with A2780 [2] was 89.2%; with A-431 [4], 45.5%; in the test with MCF7 [7], 44.4%; with HeLa [8], 90.2%. The values for the IC50 in the test on HeLa [9] and with A2780 [11] were 5.04 µM and 11.4 µM, respectively.

In the case of `CC(=O)O[C@H]1CC[C@@]2(C)C(=CC[C@H]3[C@@H]4CC[C@H](/C=N/NC(=O)c5cccnc5)[C@@]4(C)CC[C@@H]32)C1`, the inhibition at 10 µM with HeLa [1] was 65.8%; in the test on A2780 [3], 27.8%; in the test with A-431 [5], 37.1%; in the test with MCF7 [6], < 20%. The inhibition at 30 µM with A2780 [2] is 84.3%; in the test on A-431 [4] it was 37%; with MCF7 [7], 28.7%; in the test with HeLa [8], 88%. Besides, the 50% inhibitory concentration (IC50) in the test with HeLa [9] stood at 6.44 µM; with A2780 [11], 16.5 µM.

As to `CC(=O)O[C@H]1CC[C@@]2(C)C(=CC[C@H]3[C@@H]4CC[C@H](/C=N/NC(=O)c5ccco5)[C@@]4(C)CC[C@@H]32)C1`, the inhibition at 10 µM in the test with HeLa [1] worked out at 77.8%; with A2780 [3], 26.2%; in the test on A-431 [5], 39%; in the test on MCF7 [6], 26.7%. The IC50 in the test with MCF7 [12] turned out to be 11.9 µM; with HeLa [9], 6.95 µM; with A2780 [11], 11.3 µM. Further, the inhibition at 30 µM with A2780 [2] worked out at 70.5%; in the test on A-431 [4], 40.4%; with MCF7 [7], 55.1%; in the test with HeLa [8], 91.2%.

In the case of `CC(=O)O[C@H]1CC[C@@]2(C)C(=CC[C@H]3[C@@H]4CC[C@H]([C@H]5OC(c6ccccc6)=NN5C(C)=O)[C@@]4(C)CC[C@@H]32)C1`, the inhibition at 10 µM is < 20% with HeLa [1], 20.2% in the test on A2780 [3], 22.7% in the test with A-431 [5] and < 20% in the test on MCF7 [6]. Further, the inhibition at 30 µM in the test with A2780 [2] came to 53.5%; in the test on A-431 [4] it was 41.7%; with MCF7 [7] it was 26.7%; in the test on HeLa [8] it was 71.3%. The results for the IC50 in the test with HeLa [9] and in the test with A2780 [11] were 21.5 µM and 27.3 µM, respectively.

As a reminder, the inhibition is how much of the control response was suppressed. Low readings indicate little suppression, high ones strong suppression. For orientation: IC50 means the concentration that gives 50% inhibition. A lower IC50 goes with greater potency.
